Results published in patent US11780845B2 (Relay Therapeutics, Inc., priority 2019, dated 2023).

How the values were obtained:
FGFR2 = FGFR2 (Homo sapiens (Human), UniProt P21802); assay: FGFR2 Biochemical Caliper Assay
Method: Compounds of the present invention were also tested in a FGFR2 Biochemical Caliper Assay. Compounds were prepared in 10 mM DMSO solution and serially diluted into 11 concentrations by 3-fold dilution. […] 5 uL of ATP solution (100 uM) was added to start the reaction and the plate was incubated for 90 minutes, then 70 uL of stopping buffer (0.5M EDTA) was added to terminate the reaction. Each well was analyzed using EZ reader.

SNU16 cells = assay: SNU16 Cancer Cell Line Proliferation Assay; format: cell-based; settings: Homo sapiens; SNU-16 cells
Summary of the method: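 SNU16 cells were seeded, held 24 h at 37 degrees, then dosed with an 11-point 3-fold dilution series prepared from a 10 mM DMSO stock. After 96 h incubation, viability was read by CellTiter Glo luminescence.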

Sequence of FGFR2 (P21802 22-821): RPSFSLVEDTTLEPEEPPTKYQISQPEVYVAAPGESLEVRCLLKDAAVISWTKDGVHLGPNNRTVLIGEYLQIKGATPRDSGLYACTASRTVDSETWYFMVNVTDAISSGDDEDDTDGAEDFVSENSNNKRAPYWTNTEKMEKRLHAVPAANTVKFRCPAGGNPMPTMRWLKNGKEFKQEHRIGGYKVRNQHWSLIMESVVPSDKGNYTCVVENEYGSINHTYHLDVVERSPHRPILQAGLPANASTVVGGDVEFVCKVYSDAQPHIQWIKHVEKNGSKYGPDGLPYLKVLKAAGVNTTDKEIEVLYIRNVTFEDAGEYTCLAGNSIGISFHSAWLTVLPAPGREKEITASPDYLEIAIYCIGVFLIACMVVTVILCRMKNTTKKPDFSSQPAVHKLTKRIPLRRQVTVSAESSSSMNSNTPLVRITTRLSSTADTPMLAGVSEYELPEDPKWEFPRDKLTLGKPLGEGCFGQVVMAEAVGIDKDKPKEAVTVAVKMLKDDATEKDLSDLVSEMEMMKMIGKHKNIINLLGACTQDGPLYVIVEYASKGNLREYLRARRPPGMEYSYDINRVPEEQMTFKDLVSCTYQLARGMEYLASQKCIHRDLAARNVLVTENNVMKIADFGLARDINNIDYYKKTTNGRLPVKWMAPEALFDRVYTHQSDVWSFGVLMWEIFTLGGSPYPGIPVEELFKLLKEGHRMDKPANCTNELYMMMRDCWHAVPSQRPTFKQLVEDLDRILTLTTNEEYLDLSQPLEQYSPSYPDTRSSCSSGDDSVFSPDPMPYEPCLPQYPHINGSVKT

Row | IC50 (FGFR2) | IC50 (SNU16 cells) | Structure (SMILES)
1 | 250 to 1000 nM | 100 to 250 nM | C=CC(=O)N1CCC(n2cc(-c3c(-c4ccc(Oc5cnccn5)cc4)c4c(N)ncnc4n3C)cn2)CC1 [Example 642]
2 | 250 to 1000 nM | 250 to 1000 nM | C=C(CN1CCOCC1)C(=O)N1CCC(n2cc(-c3c(-c4ccc(Oc5cccc(C)n5)cc4)c4c(N)ncnc4n3C)cn2)CC1 [Example 643]
3 | 250 to 1000 nM | 250 to 1000 nM | CC#CC(=O)N1CCC(n2cc(-c3c(-c4ccc(Oc5cccc(C)n5)cc4)c4c(N)ncnc4n3C)cn2)CC1 [Example 644]
4 | < 100 nM | ≤ 100 nM | C=CC(=O)N1CCC(c2c(-c3ccc(Oc4cccc(C)n4)cc3)c3c(N)ncnc3n2C)C1 (centres unmarked) [Example 645]
5 | 100 to 250 nM | 100 to 250 nM | Cc1cccc(Oc2ccc(-c3c(-c4cnn(C5CCN(C(=O)/C=C/CN6CCOCC6)CC5)c4)n(C)c4ncnc(N)c34)cc2)n1 [Example 646]
6 | < 100 nM | ≤ 100 nM | C=CC(=O)N1CCC(c2c(-c3ccc(Oc4cccc(C)n4)cc3)c3c(N)ncnc3n2C)CC1 [Example 647]
7 | < 100 nM | 100 to 250 nM | C=CS(=O)(=O)N1CCC(n2cc(-c3c(-c4ccc(Oc5cccc(C)n5)cc4)c4c(N)ncnc4n3C)cn2)CC1 [Example 648]
8 | 100 to 250 nM | 250 to 1000 nM | C/C=C/C(=O)N1CCC(n2cc(-c3c(-c4ccc(Oc5cccc(C)n5)cc4)c4c(N)ncnc4n3C)cn2)CC1 [Example 649]
9 | < 100 nM | ≤ 100 nM | C=CC(=O)N1CCC(n2cc(-c3c(-c4ccc(Oc5cccc(OC)n5)cc4)c4c(N)ncnc4n3C)cn2)CC1 [Example 650]
10 | 100 to 250 nM | ≤ 100 nM | C=CC(=O)N1CCC(c2nnc(-c3c(-c4ccc(Oc5cccc(C)n5)cc4)c4c(N)ncnc4n3C)o2)CC1 [Example 651]
11 | 100 to 250 nM | 1000 to 100000 nM | C=C(C)C(=O)N1CCC(n2cc(-c3c(-c4ccc(Oc5ccccc5)cc4)c4c(N)ncnc4n3C)cn2)CC1 [Example 652]
12 | 250 to 1000 nM | 1000 to 100000 nM | C=C(C)C(=O)N1CCC(n2cc(-c3c(-c4ccc(OC)cc4)c4c(N)ncnc4n3C)cn2)CC1 [Example 653]
13 | < 100 nM | ≤ 100 nM | C=CC(=O)N1CC=C(c2c(-c3ccc(OC)cc3)c3c(N)ncnc3n2C)CC1 [Example 654]
14 | 250 to 1000 nM | 1000 to 100000 nM | C/C(=C\CN(C)C)C(=O)N1CCC(n2cc(-c3c(-c4ccc(Oc5cccc(C)n5)cc4)c4c(N)ncnc4n3C)cn2)CC1 [Example 655]
15 | < 100 nM | ≤ 100 nM | C=CC(=O)N1CC=C(c2c(-c3ccc(Oc4cccc(C)n4)cc3)c3c(N)ncnc3n2C)CC1 [Example 656]
16 | 1000 to 100000 nM | 1000 to 100000 nM | C=CC(=O)N1CCC=C(c2c(-c3ccc(Oc4cccc(C)n4)c(OC)c3)c3c(N)ncnc3n2C)C1 [Example 657]
17 | < 100 nM | ≤ 100 nM | C=CC(=O)N1CCC(c2nc(-c3c(-c4ccc(Oc5cccc(C)n5)cc4)c4c(N)ncnc4n3C)no2)CC1 [Example 660]
18 | 1000 to 100000 nM | 1000 to 100000 nM | C=CC(=O)N1CCCC(c2c(-c3ccc(Oc4cccc(C)n4)c(OC)c3)c3c(N)ncnc3n2C)C1 (centres unmarked) [Example 661]
19 | 100 to 250 nM | 250 to 1000 nM | C=CC(=O)NC1CCC(c2c(-c3ccc(Oc4cccc(C)n4)cc3)c3c(N)ncnc3n2C)CC1 (centres unmarked) [Example 662]
20 | 250 to 1000 nM | 250 to 1000 nM | C=CC(=O)N1CCCC(c2c(-c3ccc(Oc4cccc(C)n4)cc3)c3c(N)ncnc3n2C)C1 (centres unmarked) [Example 663]
21 | 100 to 250 nM | 100 to 250 nM | C=CC(=O)N1CCC(n2cc(-c3c(-c4ccc(Oc5ccccn5)c(OC)c4)c4c(N)ncnc4n3C)cn2)CC1C (centres unmarked) [Example 664]
22 | 100 to 250 nM | 250 to 1000 nM | C=CC(=O)N1CCC=C(c2c(-c3ccc(Oc4cccc(C)n4)cc3)c3c(N)ncnc3n2C)C1 [Example 665]

Row | IC50 (FGFR2) | IC50 (SNU16 cells) | Structure (SMILES)
23 | < 100 nM | ≤ 100 nM | C=CC(=O)N1CC=C(c2c(-c3ccc(Oc4cccc(C)n4)cc3)c3c(N)ncnc3n2C)C1 [Example 666]
24 | 100 to 250 nM | 100 to 250 nM | C=CC(=O)N1CC=C(c2c(-c3ccc(Oc4cccc(C)n4)c(OC)c3)c3c(N)ncnc3n2C)C1 [Example 667]
25 | < 100 nM | 1000 to 100000 nM | C/C=C(\C#N)C(=O)N1CCC(n2cc(-c3c(-c4ccc(Oc5cccc(C)n5)cc4)c4c(N)ncnc4n3C)cn2)CC1 [Example 668]
26 | 250 to 1000 nM | 250 to 1000 nM | C=CC(=O)N1CCC(n2cc(-c3c(-c4ccc(Oc5ccccn5)c(OC)c4)c4c(N)ncnc4n3C)cn2)CC1 [Example 669]
27 | 250 to 1000 nM | 250 to 1000 nM | C=CC(=O)N1CCC(c2c(-c3ccc(Oc4cccc(C)n4)c(OC)c3)c3c(N)ncnc3n2C)C1 (centres unmarked) [Example 670]
28 | 250 to 1000 nM | 1000 to 100000 nM | C/C(=C\CN(C)C)C(=O)N1CC(n2cc(-c3c(-c4ccc(Oc5cccc(C)n5)cc4)c4c(N)ncnc4n3C)cn2)C1 [Example 671]
29 | 100 to 250 nM | 250 to 1000 nM | C=CC(=O)N1CCC(n2cc(-c3c(-c4ccc(Oc5cccc(C)c5)c(OC)c4)c4c(N)ncnc4n3C)cn2)CC1 [Example 672]
30 | < 100 nM | ≤ 100 nM | C=CC(=O)N1CCC(n2ncc(-c3c(-c4ccc(Oc5cccc(C)n5)c(OC)c4)c4c(N)ncnc4n3C)c2C)CC1 [Example 673]
31 | < 100 nM | ≤ 100 nM | C=CC(=O)N1CC=C(c2c(-c3ccc(Oc4ncccn4)c(OC)c3)c3c(N)ncnc3n2C)CC1 [Example 674]
32 | 250 to 1000 nM | 1000 to 100000 nM | C=CC(=O)N1CCC(c2c(-c3ccc(Oc4ccccn4)c(OC)c3)c3c(N)ncnc3n2C)C1 (centres unmarked) [Example 675]
33 | < 100 nM | ≤ 100 nM | C=CC(=O)N1CC=C(c2c(-c3ccc(Oc4ccccn4)c(OC)c3)c3c(N)ncnc3n2C)CC1 [Example 676]
34 | < 100 nM | ≤ 100 nM | C=CC(=O)N1CC=C(c2c(-c3ccc(Oc4cc(C)ccn4)c(OC)c3)c3c(N)ncnc3n2C)CC1 [Example 677]
35 | < 100 nM | 100 to 250 nM | C=CC(=O)N1CC=C(c2c(-c3ccc(Oc4cncc(C)c4)c(OC)c3)c3c(N)ncnc3n2C)CC1 [Example 678]
36 | < 100 nM | ≤ 100 nM | C=CC(=O)N1CC=C(c2c(-c3ccc(Oc4ncccn4)cc3)c3c(N)ncnc3n2C)CC1 [Example 680]
37 | < 100 nM | ≤ 100 nM | C=CC(=O)N1CC=C(c2c(-c3ccc(Oc4ccccn4)cc3)c3c(N)ncnc3n2C)CC1 [Example 681]
38 | 100 to 250 nM | ≤ 100 nM | C=CC(=O)N1CCC(c2c(-c3ccc(Oc4ncccn4)cc3)c3c(N)ncnc3n2C)C1 (centres unmarked) [Example 682]
39 | < 100 nM | ≤ 100 nM | C=CC(=O)N1CC=C(c2c(-c3ccc(Oc4ccc(C)cn4)c(OC)c3)c3c(N)ncnc3n2C)CC1 [Example 683]
40 | 1000 to 100000 nM | 1000 to 100000 nM | C=CC(=O)N1CCC(n2nc(-c3c(-c4ccc(Oc5cccc(C)n5)c(OC)c4)c4c(N)ncnc4n3C)cc2C)CC1 [Example 684]
41 | 1000 to 100000 nM | 1000 to 100000 nM | C=CC(=O)N1CCC(c2c(-c3ccc(Oc4ccc(C)nc4)c(OC)c3)c3c(N)ncnc3n2C)C1 (centres unmarked) [Example 685]
42 | < 100 nM | ≤ 100 nM | C=CC(=O)N1CC=C(c2c(-c3ccc(Oc4ncccn4)cc3)c3c(N)ncnc3n2C)C1 [Example 686]
43 | 1000 to 100000 nM | 1000 to 100000 nM | C=CC(=O)N1CCC(c2c(-c3ccc(Oc4ncccn4)c(OC)c3)c3c(N)ncnc3n2C)C1 (centres unmarked) [Example 687]
